Values quoted from earlier work in patent US6777002B1, “Process for microencapsulation of water soluble substances” (Debio Recherche Pharmaceutique S.A., priority 1999, dated 2004).

Conditions: in water at 20-25° C.

Compound | solubility in water
CCOC(C)=O [ethyl acetate] | 8.70 % (by weight)
ClCCl [dichloromethane] | 1.32 % (by weight)
